Measurements published in paper PMC11649115, “In vitro safety evaluation of dopamine D3R antagonist, R-VK4-116, as a potential medication for the treatment of opioid use disorder” (PLOS ONE, 2024).
Several values for one entry are separate records, joined by “and”; a condition that tells them apart may be missing. Equal entries are not always repeated. Where two headings read alike, the source gives them in different places.

What was measured:
[1] = system: CYP1A2, CYP2B6, CYP2C8, CYP2C9, CYP2C19; assay: CYP phenotyping, other recombinant CYP isoforms; assay type: in vitro ADME; conditions: 1 μM, up to 120 min
Procedure: (§1) CYP phenotyping involved the identification of CYP isoforms, which involved in the metabolism of R-VK4-116 using recombinant CYP1A2, CYP2B6, CYP2C8, CYP2C9, CYP2C19, CYP2D6, and CYP3A4 (XenoTech, LLC, Kansas City, KS), followed by determination of the Km and Vmax for the metabolites formed by the major CYP isoforms. […] In addition, R-VK4-116 was also incubated with all components in the absence of NADPH. […] Following brief vortexing and centrifugation, 50 μl of supernatant was mixed with 450 μl of 25:75:0.2 acetonitrile/water/formic acid for analysis by LC-MS/MS to determine the remaining R-VK4-116 at each time point based on peak area ratio (PAR) of R-VK4-116 to IS. As a positive control, the known substrate of each individual CYP isoform (phenacetin for CYP1A2, bupropion for CYP2B6, paclitaxel for CYP2C8, diclofenac for CYP2C9, diazepam for CYP2C19, bufuralol for CYP2D6, and testosterone for CYP3A4) was also incubated.

CYP3A4 mRNA = assay: CYP induction, mRNA, primary cultured human hepatocytes; assay type: in vitro ADME; conditions: for fold induction at 48 h, 0.01 µM / fold induction at 48 h, 0.1 µM / fold induction at 48 h, 1 µM / fold induction at 48 h, 3 µM / fold induction at 48 h, 5 µM / fold induction at 48 h, 10 µM: human, primary cultured human hepatocytes, read-out: CYP3A4 mRNA Fold Induction (fold of vehicle control)
HPK1 = biological target: T1, HPK1 (Homo sapiens, UniProt Q92918); assay: KINOMEscan binding (% Ctrl, Kd)
T1 construct: made in house; host or cells: E. coli BL21-derived host (T7 phage) or HEK-293
T1 sequence (Q92918 whole entry): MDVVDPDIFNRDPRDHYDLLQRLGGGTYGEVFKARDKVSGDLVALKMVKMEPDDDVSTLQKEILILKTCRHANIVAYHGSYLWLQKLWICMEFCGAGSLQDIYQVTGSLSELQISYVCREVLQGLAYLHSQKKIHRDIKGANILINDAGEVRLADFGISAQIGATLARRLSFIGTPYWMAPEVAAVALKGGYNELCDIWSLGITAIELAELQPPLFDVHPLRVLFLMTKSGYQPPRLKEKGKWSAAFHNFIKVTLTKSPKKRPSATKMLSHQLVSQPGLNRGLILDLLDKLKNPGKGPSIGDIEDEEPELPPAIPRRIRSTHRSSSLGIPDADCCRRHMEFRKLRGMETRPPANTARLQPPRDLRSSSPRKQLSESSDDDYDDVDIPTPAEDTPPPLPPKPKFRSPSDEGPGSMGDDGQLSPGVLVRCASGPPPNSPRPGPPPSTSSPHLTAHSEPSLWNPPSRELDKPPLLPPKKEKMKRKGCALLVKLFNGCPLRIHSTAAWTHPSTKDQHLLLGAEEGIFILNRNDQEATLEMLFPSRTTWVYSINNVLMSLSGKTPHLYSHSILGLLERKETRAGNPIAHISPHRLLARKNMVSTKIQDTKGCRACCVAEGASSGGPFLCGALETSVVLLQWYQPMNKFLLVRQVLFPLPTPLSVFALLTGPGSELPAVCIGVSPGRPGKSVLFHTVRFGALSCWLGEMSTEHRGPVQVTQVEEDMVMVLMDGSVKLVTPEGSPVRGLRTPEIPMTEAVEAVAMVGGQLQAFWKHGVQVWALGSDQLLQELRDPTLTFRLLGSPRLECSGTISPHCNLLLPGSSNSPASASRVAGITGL
Procedure: (§3) Briefly, E. coli host derived from the BL21 strain were grown to log-phase and infected with kinase-tagged T7 phage and incubated with shaking at 32°C until lysis. The lysates were centrifuged and filtered to remove cell debris. The remaining kinases were produced in HEK-293 cells and subsequently tagged with DNA for qPCR detection. Streptavidin-coated magnetic beads were treated with biotinylated small molecule ligands to generate affinity resins for kinase assays. The liganded beads were blocked with excess biotin and washed to remove unbound ligand and to reduce non-specific phage binding. […] Selectivity Score (S-score) was a quantitative measure of compound selectivity. […] The binding constants (Kds) were also determined with a standard dose-response curve using the Hill equation and Levenberg-Marquardt algorithm [24, 25].

TNK1 = biological target: T2, TNK1 (Homo sapiens, UniProt Q13470); assay: KINOMEscan binding (% Ctrl, Kd)
T2 construct: made in house; host or cells: E. coli BL21-derived host (T7 phage) or HEK-293
T2 sequence (Q13470 1-666): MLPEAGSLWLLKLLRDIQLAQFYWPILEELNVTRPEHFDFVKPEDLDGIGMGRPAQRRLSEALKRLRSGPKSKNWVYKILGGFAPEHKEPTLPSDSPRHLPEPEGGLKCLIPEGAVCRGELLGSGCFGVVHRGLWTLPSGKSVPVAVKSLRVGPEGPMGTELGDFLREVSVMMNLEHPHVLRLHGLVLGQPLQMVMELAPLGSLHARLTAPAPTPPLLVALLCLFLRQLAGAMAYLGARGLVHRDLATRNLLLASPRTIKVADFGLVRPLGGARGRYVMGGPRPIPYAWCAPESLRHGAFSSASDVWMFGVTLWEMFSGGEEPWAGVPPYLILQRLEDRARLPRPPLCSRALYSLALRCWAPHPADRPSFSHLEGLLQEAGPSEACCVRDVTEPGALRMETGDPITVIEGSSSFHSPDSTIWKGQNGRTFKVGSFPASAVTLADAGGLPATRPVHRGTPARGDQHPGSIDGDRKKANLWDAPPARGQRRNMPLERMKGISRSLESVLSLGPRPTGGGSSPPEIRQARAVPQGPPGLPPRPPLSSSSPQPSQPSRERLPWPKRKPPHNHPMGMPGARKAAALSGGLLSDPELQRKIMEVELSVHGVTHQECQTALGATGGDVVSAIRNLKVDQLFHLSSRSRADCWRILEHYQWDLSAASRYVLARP
Procedure: as §3

[2] = Plasma protein binding, Sephadex G-25 gel filtration; assay type: in vitro ADME, human; conditions: human, plasma; for fraction unbound at 2 h, 0.5 μM: human plasma, nominal 0.5 μM
Procedure: (§2) The gel filtration used solid-phase extraction columns containing hydrated gel filtration beads (Sephadex G-25). […] In this method, the amount of analyte accompanying the proteins (i.e., protein-bound R-VK4-116) before and after filtration was assayed for analyte concentration by LC-MS/MS.

human plasma proteins = assay: as above; assay type: in vitro ADME; conditions: human plasma
Procedure: as §2

plasma proteins = assay: as above; assay type: in vitro ADME, human; conditions: human, plasma, human plasma, nominal 1 μM; read-out: % Bound, Mean ± SD (converted)
Procedure: as §2

cardiovascular effects = conditions: rats, up to 25 mg/kg ref 9; cited from earlier work
CYP2D6 = CYP2D6 (Homo sapiens, UniProt P10635); assay: CYP phenotyping, recombinant CYP; assay type: in vitro ADME; set-up: purchased XenoTech, LLC, Kansas City, KS; host or cells: bactosomes (bacterial membranes); conditions: recombinant CYP2D6, pH 7.4, incubated with CYP2D6, 1 μM, 120 min
CYP2D6, sequence (P10635 whole entry): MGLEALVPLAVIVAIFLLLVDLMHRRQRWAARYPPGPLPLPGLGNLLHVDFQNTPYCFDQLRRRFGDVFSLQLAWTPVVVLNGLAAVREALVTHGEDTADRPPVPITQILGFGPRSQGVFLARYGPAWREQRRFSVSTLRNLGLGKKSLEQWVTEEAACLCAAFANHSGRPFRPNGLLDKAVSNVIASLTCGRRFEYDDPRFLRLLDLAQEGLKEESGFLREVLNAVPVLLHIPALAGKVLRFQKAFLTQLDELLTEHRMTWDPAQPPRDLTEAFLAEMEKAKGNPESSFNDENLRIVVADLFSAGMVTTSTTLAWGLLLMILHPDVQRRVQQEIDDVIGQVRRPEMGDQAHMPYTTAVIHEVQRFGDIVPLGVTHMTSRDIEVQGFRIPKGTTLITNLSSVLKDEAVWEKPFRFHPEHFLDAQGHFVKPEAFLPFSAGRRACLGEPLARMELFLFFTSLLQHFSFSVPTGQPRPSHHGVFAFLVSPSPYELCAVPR
Procedure: as §1

CYP3A4 = CYP3A4 (Homo sapiens, UniProt P08684); assay: CYP phenotyping, recombinant CYP; assay type: in vitro ADME; set-up: purchased XenoTech, LLC, Kansas City, KS; host or cells: bactosomes (bacterial membranes); conditions: recombinant CYP3A4, pH 7.4, incubated with CYP3A4, 1 μM, 120 min
CYP3A4, sequence (P08684 whole entry): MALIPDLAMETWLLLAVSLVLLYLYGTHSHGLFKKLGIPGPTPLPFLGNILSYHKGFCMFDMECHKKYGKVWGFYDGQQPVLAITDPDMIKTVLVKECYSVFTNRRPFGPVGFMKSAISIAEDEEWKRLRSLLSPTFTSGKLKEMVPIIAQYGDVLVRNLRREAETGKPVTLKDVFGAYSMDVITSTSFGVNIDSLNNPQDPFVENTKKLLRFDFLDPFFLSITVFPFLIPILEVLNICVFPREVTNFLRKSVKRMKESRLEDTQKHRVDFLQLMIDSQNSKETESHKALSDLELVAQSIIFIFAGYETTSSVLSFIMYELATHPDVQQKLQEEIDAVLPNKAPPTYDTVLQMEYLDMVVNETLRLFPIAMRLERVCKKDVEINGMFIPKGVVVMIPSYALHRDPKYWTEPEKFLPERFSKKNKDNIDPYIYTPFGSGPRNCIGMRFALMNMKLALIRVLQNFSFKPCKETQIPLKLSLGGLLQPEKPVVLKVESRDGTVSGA
Procedure: as §1

[3] = 11-point curve 0.001 to 10 μM, read-out: binding constant (Kd)

CCc1cc(Cl)c(OC)c(N2CCN(CC(O)CCNC(=O)c3cc4ccccc4[nH]3)CC2)c1 (stereo not drawn) [R-VK4-116, N-(4-(4-(3-chloro-5-ethyl-2-methoxyphenyl)piperazin-1-yl)-3-hydroxybutyl)-1H-indole-2-carboxamide]
metabolism by other CYP isoforms [1]: Minimal to no metabolism
induction in CYP3A4 mRNA, average (CYP3A4 mRNA; 5 μM, two days, average of hepatocyte lots): 2.9 fold
fold induction at 48 h, 0.01 µM (CYP3A4 mRNA; Lot 336, 0.01 μM): 1.1 ± 0.079
fold induction at 48 h, 0.1 µM (CYP3A4 mRNA; Lot 336, 0.1 μM): 1.1 ± 0.18
fold induction at 48 h, 1 µM (CYP3A4 mRNA; Lot 336, 1 μM): 2.3 ± 0.15
fold induction at 48 h, 3 µM (CYP3A4 mRNA; Lot 336, 3 μM): 3.7 ± 0.56
fold induction at 48 h, 5 µM (CYP3A4 mRNA; Lot 336, 5 μM): 4 ± 0.78
fold induction at 48 h, 10 µM (CYP3A4 mRNA; Lot 336, 10 μM): 3.7 ± 0.2
fold induction at 48 h, 0.01 µM (CYP3A4 mRNA; Lot 348B, 0.01 μM): 1.1 ± 0.05
fold induction at 48 h, 0.1 µM (CYP3A4 mRNA; Lot 348B, 0.1 μM): 1.2 ± 0.081
fold induction at 48 h, 1 µM (CYP3A4 mRNA; Lot 348B, 1 μM): 1.3 ± 0.12
fold induction at 48 h, 3 µM (CYP3A4 mRNA; Lot 348B, 3 μM): 1.8 ± 0.17
fold induction at 48 h, 5 µM (CYP3A4 mRNA; Lot 348B, 5 μM): 2 ± 0.27
fold induction at 48 h, 10 µM (CYP3A4 mRNA; Lot 348B, 10 μM): 1.9 ± 0.13
fold induction at 48 h, 0.01 µM (CYP3A4 mRNA; Lot 399, 0.01 μM): 1.2 ± 0.2
fold induction at 48 h, 0.1 µM (CYP3A4 mRNA; Lot 399, 0.1 μM): 1.2 ± 0.11
fold induction at 48 h, 1 µM (CYP3A4 mRNA; Lot 399, 1 μM): 1.8 ± 0.12
fold induction at 48 h, 3 µM (CYP3A4 mRNA; Lot 399, 3 μM): 2.6 ± 0.14
fold induction at 48 h, 5 µM (CYP3A4 mRNA; Lot 399, 5 μM): 2.7 ± 0.4
fold induction at 48 h, 10 µM (CYP3A4 mRNA; Lot 399, 10 μM): 2.3 ± 0.39
Kd (HPK1; [3]): > 10 µM
remaining binding at 1 µM (HPK1; read-out: %Control): < 35%
remaining binding at 1 µM (HPK1; read-out: Gene (S-score with % control): HPK1): 29%
Kd (TNK1; [3]): > 10 µM
remaining binding at 1 µM (TNK1; read-out: %Control): < 35%
remaining binding at 1 µM (TNK1; read-out: Gene (S-score with % control): TNK1): 17%
fraction unbound at 2 h, 0.5 μM ([2]; read-out: % Bound (converted)): 0.026
fraction unbound at 2 h, 0.5 μM ([2]; read-out: % Bound, Mean ± SD (converted)): 0.028
fraction unbound at 2 h ([2]; rat, dog, range over human, rat and dog plasma, read-out: bound to plasma proteins): 0.07 to 0.17
% Bound (human plasma proteins; nominal 0.5 μM): 96.9%
Ratio [R-VK4-116] Before Filtration / Eluate, Mean ± SD (human plasma proteins; nominal 0.5 μM): 0.988 ± 0.13
[R-VK4-116] Before Filtration (human plasma proteins; nominal 0.5 μM): 0.550 µM and 0.597 µM and 0.598 µM
[R-VK4-116] In Sephadex G-25 Eluate (human plasma proteins; nominal 0.5 μM): 0.520 µM and 0.715 µM and 0.557 µM
% Bound (human plasma proteins; nominal 1 μM): 92.5% and 81.6% and 83.7%
Ratio [R-VK4-116] Before Filtration / Eluate (human plasma proteins; nominal 1 μM): 1.50 and 1.62 and 1.55
Ratio [R-VK4-116] Before Filtration / Eluate, Mean ± SD (human plasma proteins; nominal 1 μM): 1.56 ± 0.06
[R-VK4-116] Before Filtration (human plasma proteins; nominal 1 μM): 0.923 µM and 0.995 µM and 1.02 µM
[R-VK4-116] In Sephadex G-25 Eluate (human plasma proteins; nominal 1 μM): 0.614 µM and 0.615 µM and 0.657 µM
fraction unbound at 2 h, 1 μM (plasma proteins): 0.141
potentiation of the cardiovascular effects of cocaine or oxycodone (cardiovascular effects): did not potentiate
remaining at 2 h, 1 μM (CYP2D6): 40.6%
remaining at 2 h, 1 μM (CYP3A4): 25.6%
